# System: NCI-H1341 complex spheroids, percent test/control
# Test: Anticancer human tumor NCI-H1341 cell line growth inhibition [AhR];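 further: spheroids exposed to agents for seven days before readout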
# Settings: for IC50: curve of first compound; for viability, T/C: stronger effect = lower value
# How it was run: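 Complex tumor spheroids co-cultured with HUVEC and human MSC stroma; AhR antagonists tested in combination with standard-of-care and investigational agents. Top concentration at or near clinical Cmax (else 10 microM), half-log dilutions; growth expressed as percent test/control.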
# [1] = second compound 0.1 µM, first compound 0.0316 µM
# [2] = second compound 0.1 µM, first compound 0.1 µM
# [3] = second compound 0.1 µM, first compound 0.316 µM
# [4] = second compound 0.1 µM, first compound 1 µM
# [5] = second compound 0.1 µM, first compound 3.16 µM
# [6] = second compound 0.1 µM, first compound 10 µM
# [7] = second compound 0.316 µM, first compound 0.0316 µM
# [8] = second compound 0.316 µM, first compound 0.1 µM
# [9] = second compound 0.316 µM, first compound 0.316 µM
# [10] = second compound 0.316 µM, first compound 1 µM
# [11] = second compound 0.316 µM, first compound 3.16 µM
# [12] = second compound 0.316 µM, first compound 10 µM
# [13] = second compound 1 µM, first compound 0.0316 µM
# [14] = second compound 1 µM, first compound 0.1 µM
# [15] = second compound 1 µM, first compound 0.316 µM
# [16] = second compound 1 µM, first compound 1 µM
# [17] = second compound 1 µM, first compound 3.16 µM
# [18] = second compound 1 µM, first compound 10 µM
# [19] = second compound 3.16 µM, first compound 0.0316 µM
# [20] = second compound 3.16 µM, first compound 0.1 µM
# [21] = second compound 3.16 µM, first compound 0.316 µM
# [22] = second compound 3.16 µM, first compound 1 µM
# [23] = second compound 3.16 µM, first compound 3.16 µM
# [24] = second compound 3.16 µM, first compound 10 µM
# [25] = second compound 10 µM, first compound 0.0316 µM
# [26] = second compound 10 µM, first compound 0.1 µM
# [27] = second compound 10 µM, first compound 0.316 µM
# [28] = second compound 10 µM, first compound 1 µM
# [29] = second compound 10 µM, first compound 3.16 µM
# [30] = second compound 10 µM, first compound 10 µM
compound,measurement,setting,value
CC1(C)CCC(CN2CCN(c3ccc(C(=O)NS(=O)(=O)c4ccc(NCC5CCOCC5)c([N+](=O)[O-])c4)c(Oc4cnc5[nH]ccc5c4)c3)CC2)=C(c2ccc(Cl)cc2)C1 + Cc1cncc(-c2nc(NCCc3c[nH]c4ccccc34)c3ncn(C(C)C)c3n2)c1,IC50,second compound 0.1 µM,> 10000 nM
same,IC50,second compound 0.316 µM,> 10000 nM
same,IC50,second compound 1 µM,> 10000 nM
same,IC50,second compound 3.16 µM,> 10000 nM
same,IC50,second compound 10 µM,< 31.6 nM
same,"viability, T/C",[1],94.9%
same,"viability, T/C",[2],77.2%
same,"viability, T/C",[3],81.5%
same,"viability, T/C",[4],77%
same,"viability, T/C",[5],64.9%
same,"viability, T/C",[6],68.3%
same,"viability, T/C",[7],86.6%
same,"viability, T/C",[8],77.9%
same,"viability, T/C",[9],71.3%
same,"viability, T/C",[10],73.3%
same,"viability, T/C",[11],66.1%
same,"viability, T/C",[12],78.1%
same,"viability, T/C",[13],79.4%
same,"viability, T/C",[14],80.9%
same,"viability, T/C",[15],81.6%
same,"viability, T/C",[16],71.8%
same,"viability, T/C",[17],63.9%
same,"viability, T/C",[18],60.3%
same,"viability, T/C",[19],70.6%
same,"viability, T/C",[20],66.7%
same,"viability, T/C",[21],66.1%
same,"viability, T/C",[22],53.9%
same,"viability, T/C",[23],64.1%
same,"viability, T/C",[24],70.5%
same,"viability, T/C",[25],49.9%
same,"viability, T/C",[26],43.3%
same,"viability, T/C",[27],45.2%
same,"viability, T/C",[28],39.8%
same,"viability, T/C",[29],42%
same,"viability, T/C",[30],41.9%
CCN(c1cc(-c2ccc(CN3CCOCC3)cc2)cc(C(=O)NCc2c(C)cc(C)[nH]c2=O)c1C)C1CCOCC1 + Cc1cncc(-c2nc(NCCc3c[nH]c4ccccc34)c3ncn(C(C)C)c3n2)c1,IC50,second compound 0.1 µM,> 3000 nM
same,IC50,second compound 0.316 µM,> 3000 nM
same,IC50,second compound 1 µM,> 3000 nM
same,IC50,second compound 3.16 µM,> 3000 nM
same,IC50,second compound 10 µM,< 9.49 nM
same,"viability, T/C","second compound 0.1 µM, first compound 0.00949 µM",72.4%
same,"viability, T/C","second compound 0.1 µM, first compound 0.03 µM",91.7%
same,"viability, T/C","second compound 0.1 µM, first compound 0.0949 µM",68.9%
same,"viability, T/C","second compound 0.1 µM, first compound 0.3 µM",70.9%
same,"viability, T/C","second compound 0.1 µM, first compound 0.949 µM",74.5%
same,"viability, T/C","second compound 0.1 µM, first compound 3 µM",63.9%
same,"viability, T/C","second compound 0.316 µM, first compound 0.00949 µM",97.3%
same,"viability, T/C","second compound 0.316 µM, first compound 0.03 µM",82.3%
same,"viability, T/C","second compound 0.316 µM, first compound 0.0949 µM",89%
same,"viability, T/C","second compound 0.316 µM, first compound 0.3 µM",76.1%
same,"viability, T/C","second compound 0.316 µM, first compound 0.949 µM",85%
same,"viability, T/C","second compound 0.316 µM, first compound 3 µM",76.8%
same,"viability, T/C","second compound 1 µM, first compound 0.00949 µM",69.5%
same,"viability, T/C","second compound 1 µM, first compound 0.03 µM",86.7%
same,"viability, T/C","second compound 1 µM, first compound 0.0949 µM",69.8%
same,"viability, T/C","second compound 1 µM, first compound 0.3 µM",72%
same,"viability, T/C","second compound 1 µM, first compound 0.949 µM",65%
same,"viability, T/C","second compound 1 µM, first compound 3 µM",57.5%
same,"viability, T/C","second compound 3.16 µM, first compound 0.00949 µM",66.1%
same,"viability, T/C","second compound 3.16 µM, first compound 0.03 µM",77.3%
same,"viability, T/C","second compound 3.16 µM, first compound 0.0949 µM",66.4%
same,"viability, T/C","second compound 3.16 µM, first compound 0.3 µM",67.3%
same,"viability, T/C","second compound 3.16 µM, first compound 0.949 µM",56.7%
same,"viability, T/C","second compound 3.16 µM, first compound 3 µM",54.4%
same,"viability, T/C","second compound 10 µM, first compound 0.00949 µM",40.6%
same,"viability, T/C","second compound 10 µM, first compound 0.03 µM",41.7%
same,"viability, T/C","second compound 10 µM, first compound 0.0949 µM",44.1%
same,"viability, T/C","second compound 10 µM, first compound 0.3 µM",33.4%
same,"viability, T/C","second compound 10 µM, first compound 0.949 µM",34.4%
same,"viability, T/C","second compound 10 µM, first compound 3 µM",32.5%
COc1cc(Nc2ncc3c(n2)-c2ccc(Cl)cc2C(c2c(F)cccc2OC)=NC3)ccc1C(=O)O + Cc1cncc(-c2nc(NCCc3c[nH]c4ccccc34)c3ncn(C(C)C)c3n2)c1,IC50,second compound 0.1 µM,< 31.6 nM
same,IC50,second compound 0.316 µM,< 31.6 nM
same,IC50,second compound 1 µM,< 31.6 nM
same,IC50,second compound 3.16 µM,< 31.6 nM
same,IC50,second compound 10 µM,< 31.6 nM
same,"viability, T/C",[1],38.2%
same,"viability, T/C",[2],42.3%
same,"viability, T/C",[3],38.9%
same,"viability, T/C",[4],31.2%
same,"viability, T/C",[5],24.2%
same,"viability, T/C",[6],21%
same,"viability, T/C",[7],37.1%
same,"viability, T/C",[8],37.1%
same,"viability, T/C",[9],34.9%
same,"viability, T/C",[10],23.9%
same,"viability, T/C",[11],26.9%
same,"viability, T/C",[12],22.3%
same,"viability, T/C",[13],36.1%
same,"viability, T/C",[14],39.9%
same,"viability, T/C",[15],34.3%
same,"viability, T/C",[16],30.1%
same,"viability, T/C",[17],25.8%
same,"viability, T/C",[18],20.5%
same,"viability, T/C",[19],42.2%
same,"viability, T/C",[20],37.7%
same,"viability, T/C",[21],40.2%
same,"viability, T/C",[22],37.5%
same,"viability, T/C",[23],27.5%
same,"viability, T/C",[24],24%
same,"viability, T/C",[25],25.4%
same,"viability, T/C",[26],30.3%
same,"viability, T/C",[27],29.8%
same,"viability, T/C",[28],24.2%
same,"viability, T/C",[29],21.2%
same,"viability, T/C",[30],19.4%
Cn1ncnc1C1c2n[nH]c(=O)c3cc(F)cc(c23)NC1c1ccc(F)cc1 (stereo not given) + Cc1cncc(-c2nc(NCCc3c[nH]c4ccccc34)c3ncn(C(C)C)c3n2)c1,IC50,second compound 0.1 µM,> 100 nM
same,IC50,second compound 0.316 µM,> 100 nM
same,IC50,second compound 1 µM,> 100 nM
same,IC50,second compound 3.16 µM,> 100 nM
same,IC50,second compound 10 µM,< 0.316 nM
same,"viability, T/C","second compound 0.1 µM, first compound 0.000316 µM",99.9%
same,"viability, T/C","second compound 0.1 µM, first compound 0.001 µM",98.5%
same,"viability, T/C","second compound 0.1 µM, first compound 0.00316 µM",93.4%
same,"viability, T/C","second compound 0.1 µM, first compound 0.01 µM",89.3%
same,"viability, T/C",[1],80.6%
same,"viability, T/C",[2],69.1%
same,"viability, T/C","second compound 0.316 µM, first compound 0.000316 µM",87%
same,"viability, T/C","second compound 0.316 µM, first compound 0.001 µM",86.8%
same,"viability, T/C","second compound 0.316 µM, first compound 0.00316 µM",89.2%
same,"viability, T/C","second compound 0.316 µM, first compound 0.01 µM",91.7%
same,"viability, T/C",[7],66.8%
same,"viability, T/C",[8],73.4%
same,"viability, T/C","second compound 1 µM, first compound 0.000316 µM",78.2%
same,"viability, T/C","second compound 1 µM, first compound 0.001 µM",79.8%
same,"viability, T/C","second compound 1 µM, first compound 0.00316 µM",88.2%
same,"viability, T/C","second compound 1 µM, first compound 0.01 µM",95.6%
same,"viability, T/C",[13],80.6%
same,"viability, T/C",[14],64.5%
same,"viability, T/C","second compound 3.16 µM, first compound 0.000316 µM",73.9%
same,"viability, T/C","second compound 3.16 µM, first compound 0.001 µM",75.6%
same,"viability, T/C","second compound 3.16 µM, first compound 0.00316 µM",75.6%
same,"viability, T/C","second compound 3.16 µM, first compound 0.01 µM",72.6%
same,"viability, T/C",[19],77.2%
same,"viability, T/C",[20],62.5%
same,"viability, T/C","second compound 10 µM, first compound 0.000316 µM",38.7%
same,"viability, T/C","second compound 10 µM, first compound 0.001 µM",40.6%
same,"viability, T/C","second compound 10 µM, first compound 0.00316 µM",43.9%
same,"viability, T/C","second compound 10 µM, first compound 0.01 µM",42.1%
same,"viability, T/C",[25],36.1%
same,"viability, T/C",[26],40.2%
NS(=O)(=O)OCC1CC(n2ccc3c(NC4CCc5ccccc54)ncnc32)CC1O (stereo not given) + Cc1cncc(-c2nc(NCCc3c[nH]c4ccccc34)c3ncn(C(C)C)c3n2)c1,IC50,second compound 0.1 µM,108 nM
same,IC50,second compound 0.316 µM,83.3 nM
same,IC50,second compound 1 µM,< 31.6 nM
same,IC50,second compound 3.16 µM,< 31.6 nM
same,IC50,second compound 10 µM,< 31.6 nM
same,"viability, T/C",[1],50.1%
same,"viability, T/C",[2],52.7%
same,"viability, T/C",[3],33.8%
same,"viability, T/C",[4],15.5%
same,"viability, T/C",[5],14%
same,"viability, T/C",[6],12.5%
same,"viability, T/C",[7],54.4%
same,"viability, T/C",[8],48.5%
same,"viability, T/C",[9],34.8%
same,"viability, T/C",[10],17.6%
same,"viability, T/C",[11],16.8%
same,"viability, T/C",[12],12.4%
same,"viability, T/C",[13],42%
same,"viability, T/C",[14],43.6%
same,"viability, T/C",[15],35.5%
same,"viability, T/C",[16],18.4%
same,"viability, T/C",[17],15.7%
same,"viability, T/C",[18],15.8%
same,"viability, T/C",[19],49.4%
same,"viability, T/C",[20],41.6%
same,"viability, T/C",[21],41.4%
same,"viability, T/C",[22],27.6%
same,"viability, T/C",[23],19.5%
same,"viability, T/C",[24],17%
same,"viability, T/C",[25],26.4%
same,"viability, T/C",[26],31.7%
same,"viability, T/C",[27],29.9%
same,"viability, T/C",[28],25.2%
same,"viability, T/C",[29],21.4%
same,"viability, T/C",[30],20.1%

# Reference: PubChem BioAssay AID1919014 (Molecular Pharmacology Branch, DTP, NCI, 2023)
